# According to patent US9302999B2, “Substituted triazoles as herbicides” (E. I. DU PONT DE NEMOURS AND COMPANY, priority 2012, dated 2016):
# What was measured:
# [1] = tested on: morningglory (Ipomoea coccinea); assay: Test F pre-/postemergence: morningglory; format: in vivo; settings: Preemergence
# Summary of the method: (§1)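 Preemergence treatment of seeds sown in silt loam soil, and postemergence treatment of plants 2–18 cm tall (1- to 4-leaf stage), with compounds in non-phytotoxic solvent plus surfactant. Greenhouse 14–21 days, then visual rating versus controls on 0–100 scale (100 = complete control).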
# [2] = tested on: pigweed, palmer (palmer pigweed, Amaranthus palmeri); assay: Test F pre-/postemergence: pigweed, palmer; format: in vivo
# Summary of the method: as §1
# [3] = tested on: foxtail, green (green foxtail Setaria viridis); assay: Test F pre-/postemergence: foxtail, green; format: in vivo; settings: Preemergence
# Summary of the method: as §1
# [4] = tested on: kochia (Kochia scoparia); assay: Test F pre-/postemergence: kochia; format: in vivo; settings: Preemergence
# Excerpt: Seeds of plant species selected from corn (Zea mays), soybean (Glycine max), velvetleaf (Abutilon theophrasti), lambsquarters (Chenopodium album), poinsettia, wild (wild poinsettia, Euphorbia heterophylla), pigweed, palmer (palmer pigweed, Amaranthus palmeri), waterhemp (common waterhemp, Amaranthus rudis), surinam grass (Brachiaria decumbens), crabgrass, Brazil (Brazilian crabgrass, Digitaria horizontalis), panicum, fall (fall panicum Panicum dichotomiflorum), crabgrass, large (large crabgrass, Digitaria sanguinalis), foxtail, giant (giant foxtail, Setaria faberii), foxtail, green (green foxtail Setaria viridis), goosegrass (Eleusine indica), ragweed (common ragweed, Ambrosia elatior), barnyardgrass (Echinochloa crus-galli), sandbur (southern sandbur, Cenchrus echinatus), arrowleaf sida (Sida rhombifolia), ryegrass, Italian (Italian ryegrass, Lolium multiflorum), dayflower, VA (Virginia (VA) dayflower, Commelina virginica), field bindweed (Convolvulus arvensis), cocklebur (common cocklebur, Xanthium strumarium), morningglory (Ipomoea coccinea), nightshade (eastern black nightshade, Solanum ptycanthum), kochia (Kochia scoparia), nutsedge, yellow (yellow nutsedge, Cyperus esculentus), johnsongrass (Sorghum halepense), smartweed (ladysthumb smartweed, Polygonum persicaria), and beggarticks (hairy beggarticks, Bidens pilosa), were planted into a silt loam soil and treated preemergence with test chemicals formulated in a non-phytotoxic solvent mixture which included a surfactant. At the same time, plants selected from these crop and weed species and also pigweed (Amaranthus retroflexus), waterhemp_RES1 (ALS/Triazine resistant common waterhemp, Amaranthus rudis) and waterhemp_RES2 (ALS/HPPD resistant common waterhemp, Amaranthus rudis) were planted in pots containing a planting medium comprising spaghnum peat moss, vermiculite, wetting agent and starter nutrients treated with postemergence applications of some of the test chemicals formulated in the same manner. Plants ranged in height from 2 to 18 cm for postemergence treatments (1- to 4-leaf stage).
# (§2) Treated plants and controls were maintained in a greenhouse for 14 to 21 days, after which time all species were compared to controls and visually evaluated. Plant response ratings, summarized in Table E, are based on a scale of 0 to 100 where 0 is no effect and 100 is complete control. A dash (-) response means no test result.
# [5] = tested on: woolly cupgrass (Eriochloa villosa); assay: Test C pre-/postemergence: woolly cupgrass; format: in vivo
# Summary of the method: (§3)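 Preemergence on seeds in loam/sand, postemergence on 2–18 cm (1–4-leaf) plants in peat-based medium; compounds in non-phytotoxic solvent with surfactant. After 13–15 days in greenhouse, visual rating versus controls, 0 (no effect) to 100 (complete control).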
# [6] = tested on: bromegrass, downy (downy bromegrass, Bromus tectorum); assay: Test C pre-/postemergence: bromegrass, downy; format: in vivo
# Summary of the method: as §3
# [7] = tested on: Oilseed Rape; assay: Test C postemergence: oilseed rape; format: in vivo, Brassica napus
# Excerpt: (§4) Seeds of plant species selected from blackgrass (Alopecurus myosuroides), bromegrass, downy (downy bromegrass, Bromus tectorum), foxtail, green (green foxtail, Setaria viridis), ryegrass, Italian (Italian ryegrass, Lolium multiflorum), winter wheat (Triticum aestivum), wild oat (Avena fatua), galium (catchweed bedstraw, Galium aparine), bermudagrass (Cynodon dactylon), surinam grass (Brachiaria decumbens), cocklebur (common cocklebur, Xanthium strumarium), corn (Zea mays), large crabgrass (Digitaria sanguinalis), woolly cupgrass (Eriochloa villosa), foxtail, giant (giant foxtail, Setaria faberii), goosegrass (Eleusine indica), johnsongrass (Sorghum halepense), kochia (Kochia scoparia), lambsquarters (Chenopodium album), morningglory (Ipomoea coccinea), nightshade (eastern black nightshade, Solanum ptycanthum), nutsedge, yellow (yellow nutsedge, Cyperus esculentus), pigweed (Amaranthus retroflexus), ragweed (common ragweed, Ambrosia elation), soybean (Glycine max), common (oilseed) sunflower (Helianthus annuus), Russian thistle (Salsola kali) and velvetleaf (Abutilon theophrasti) were planted into a blend of loam soil and sand and treated preemergence with test chemicals formulated in a non-phytotoxic solvent mixture which included a surfactant.
# (§5) At the same time, plants selected from these crop and weed species and also barley (winter barley, Hordeum vulgare), canarygrass (Phalaris minor), chickweed (common chickweed, Stellaria media) windgrass (Apera spica-venti) and deadnettle (henbit deadnettle, Lamium amplexicaule) were planted in pots containing Redi-Earth® planting medium (Scotts Company, 14111 Scottslawn Road, Marysville, Ohio 43041) comprising spaghnum peat moss, vermiculite, wetting agent and starter nutrients and treated with postemergence applications of test chemicals formulated in the same manner. Plants ranged in height from 2 to 18 cm (1- to 4-leaf stage) for postemergence treatments.
# as §2, with “13” for “14”, “15” for “21”, “C,” for “E,”
# [8] = tested on: Waterhemp; assay: Test C pre-/postemergence: waterhemp; format: in vivo
# Excerpt: as §4, §5
# as §2, with “13” for “14”, “15” for “21”, “C,” for “E,”
# [9] = 16 g ai/ha, scale 0 to 100, 0 no effect, 100 complete control
# [10] = 31 g ai/ha, scale 0 to 100, 0 no effect, 100 complete control
# [11] = Postemergence, 31 g ai/ha, scale 0 to 100 (0 no effect, 100 complete control)
# [12] = Postemergence, 62 g ai/ha, scale 0 to 100 (0 no effect, 100 complete control)
# [13] = Postemergence, 125 g ai/ha, scale 0 to 100, 0 no effect, 100 complete control
# [14] = Postemergence, 250 g ai/ha, scale 0 to 100
# [15] = Preemergence, 31 g ai/ha, scale of 0 to 100, 0 is no effect, 100 is complete control
# [16] = Preemergence, 62 g ai/ha, scale of 0 to 100, 0 is no effect, 100 is complete control
# [17] = Preemergence, 125 g ai/ha, scale 0 to 100, 0 no effect, 100 complete control
# [18] = Preemergence, 250 g ai/ha, scale 0 to 100, 0 no effect, 100 complete control
# [19] = 125 g ai/ha, scale 0 to 100, 0 no effect, 100 complete control
# [20] = 250 g ai/ha, scale 0 to 100 (0 no effect, 100 complete control)
# [21] = 8 g ai/ha, scale 0 to 100, 0 no effect, 100 complete control
# [22] = Preemergence, 31 g ai/ha, scale 0 (no effect) to 100 (complete control)
# [23] = Preemergence, 62 g ai/ha, scale 0 to 100, 0 no effect, 100 complete control
compound,measurement,setting,value
Cc1nn(-c2ccc(C(F)(F)F)c(F)c2)nc1Oc1ccnc(C(F)(F)F)c1 [Compound 148],"Plant response rating, Morningglory",[1]; [9],0
same,"Plant response rating, Morningglory",[1]; [10],30
same,"Plant response rating, Morningglory","[1]; 125 g ai/ha, scale 0 to 100",50
same,"Plant response rating, Morningglory","[1]; 250 g ai/ha, scale 0 to 100",70
same,"Plant response rating, Pigweed, Palmer","[2]; Preemergence, 16 g ai/ha, scale 0 to 100, 0 no effect, 100 complete control",0
same,"Plant response rating, Pigweed, Palmer","[2]; Preemergence, 31 g ai/ha, scale 0 to 100, 0 no effect, 100 complete control",90
same,"Plant response rating, Pigweed, Palmer","[2]; Preemergence, 125 g ai/ha, scale 0 to 100",100
same,"Plant response rating, Pigweed, Palmer","[2]; Preemergence, 250 g ai/ha, scale 0 to 100",100
same,"Plant response rating, Foxtail, Green",[3]; [9],35
same,"Plant response rating, Foxtail, Green",[3]; [10],100
same,"Plant response rating, Foxtail, Green","[3]; 62 g ai/ha, scale 0 to 100",100
same,"Plant response rating, Foxtail, Green","[3]; 125 g ai/ha, scale 0 to 100",100
same,"Plant response rating, Foxtail, Green","[3]; 250 g ai/ha, scale 0 to 100",100
same,"Plant response rating, Kochia",[4]; [9],0
same,"Plant response rating, Kochia",[4]; [10],90
same,"Plant response rating, Kochia","[4]; 62 g ai/ha, scale 0 to 100",90
same,"Plant response rating, Kochia","[4]; 125 g ai/ha, scale 0 to 100",95
same,"Plant response rating, Kochia","[4]; 250 g ai/ha, scale 0 to 100",98
same,"Plant response rating, Cupgrass, Woolly",[5]; [11],55
same,"Plant response rating, Cupgrass, Woolly",[5]; [12],55
same,"Plant response rating, Cupgrass, Woolly",[5]; [13],65
same,"Plant response rating, Cupgrass, Woolly",[5]; [14],75
same,"Plant response rating, Cupgrass, Woolly",[5]; [15],50
same,"Plant response rating, Cupgrass, Woolly",[5]; [16],90
same,"Plant response rating, Cupgrass, Woolly",[5]; [17],95
same,"Plant response rating, Cupgrass, Woolly",[5]; [18],98
same,"Plant response rating, Bromegrass, Downy",[6]; [11],45
same,"Plant response rating, Bromegrass, Downy",[6]; [12],55
same,"Plant response rating, Bromegrass, Downy",[6]; [13],60
same,"Plant response rating, Bromegrass, Downy",[6]; [14],65
same,"Plant response rating, Bromegrass, Downy",[6]; [15],5
same,"Plant response rating, Bromegrass, Downy",[6]; [16],40
same,"Plant response rating, Bromegrass, Downy",[6]; [17],50
same,"Plant response rating, Bromegrass, Downy",[6]; [18],80
Cc1nn(-c2ccc(F)c(C(F)(F)F)c2)nc1Cc1ccnc(C(F)(F)F)c1 [Compound 156],"Plant response rating, Oilseed Rape",[7]; [19],95
same,"Plant response rating, Waterhemp",[8]; [18],100
FCc1nn(-c2ccc(F)cc2)nc1Oc1ccnc(C(F)(F)F)c1 [Compound 160],"Plant response rating, Oilseed Rape",[7]; [19],95
same,"Plant response rating, Waterhemp","[8]; Postemergence, 16 g ai/ha, scale 0 to 100, 0 no effect, 100 complete control",95
CCOCc1nn(-c2ccc(F)cc2)nc1Oc1ccnc(C(F)(F)F)c1 [Compound 163],"Plant response rating, Waterhemp",[8]; [18],100
"CCOc1nn(-c2ccc(C(F)(F)F)cc2)nc1Cc1ccnc(C(F)(F)F)c1 [Compound 164, 4-[[5-ethoxy-2-[4-(trifluoromethyl)phenyl]-2H-1,2,3-triazol-4-yl]methyl]-2-(trifluoromethyl)pyridine]","Plant response rating, Oilseed Rape",[7]; [19],20
CCCc1nn(-c2ccc(F)cc2)nc1Oc1ccnc(C(F)(F)F)c1 [Compound 168],"Plant response rating, Oilseed Rape",[7]; [19],90
same,"Plant response rating, Oilseed Rape",[7]; [20],95
same,"Plant response rating, Waterhemp",[8]; [11],80
CCCc1nn(-c2ccc(C(F)(F)F)cc2)nc1Oc1ccnc(C(F)(F)F)c1 [Compound 170],"Plant response rating, Oilseed Rape",[7]; [19],50
same,"Plant response rating, Oilseed Rape",[7]; [20],85
same,"Plant response rating, Waterhemp",[8]; [11],85
CCCc1nn(-c2ccc(F)cc2F)nc1Oc1ccnc(C(F)(F)F)c1 [Compound 179],"Plant response rating, Oilseed Rape",[7]; [19],90
same,"Plant response rating, Oilseed Rape",[7]; [20],90
same,"Plant response rating, Waterhemp",[8]; [11],80
CCc1nn(-c2ccc(C(F)(F)F)c(F)c2)nc1Oc1ccnc(C(F)(F)F)c1 [Compound 183],"Plant response rating, Oilseed Rape",[7]; [19],25
same,"Plant response rating, Oilseed Rape",[7]; [20],50
same,"Plant response rating, Waterhemp",[8]; [11],85
CCOc1nn(-c2ccc(Cl)cc2)nc1Cc1ccnc(C(F)(F)F)c1 [Compound 188],"Plant response rating, Oilseed Rape",[7]; [19],90
same,"Plant response rating, Oilseed Rape",[7]; [20],95
same,"Plant response rating, Waterhemp",[8]; [11],70
"CCOc1nn(-c2ccc(F)cc2)nc1Cc1ccnc(C(F)(F)F)c1 [Compound 196, 4-[[5-ethoxy-2-(4-fluorophenyl)-2H-1,2,3-triazol-4-yl]methyl]-2-(trifluoromethyl)pyridine]","Plant response rating, Morningglory",[1]; [21],0
same,"Plant response rating, Morningglory",[1]; [9],30
same,"Plant response rating, Morningglory",[1]; [10],30
same,"Plant response rating, Morningglory","[1]; 125 g ai/ha, scale 0 to 100",70
same,"Plant response rating, Pigweed, Palmer","[2]; Postemergence, 8 g ai/ha, scale 0 to 100",95
same,"Plant response rating, Pigweed, Palmer","[2]; Postemergence, 16 g ai/ha, scale 0 to 100",100
same,"Plant response rating, Pigweed, Palmer","[2]; Postemergence, 31 g ai/ha, scale 0 to 100",100
same,"Plant response rating, Pigweed, Palmer","[2]; Postemergence, 62 g ai/ha, scale 0 to 100",100
same,"Plant response rating, Pigweed, Palmer","[2]; Postemergence, 125 g ai/ha, scale 0 to 100",100
same,"Plant response rating, Foxtail, Green",[3]; [21],75
same,"Plant response rating, Foxtail, Green",[3]; [9],75
same,"Plant response rating, Foxtail, Green",[3]; [10],85
same,"Plant response rating, Foxtail, Green","[3]; 62 g ai/ha, scale 0 to 100",100
same,"Plant response rating, Foxtail, Green","[3]; 125 g ai/ha, scale 0 to 100",100
same,"Plant response rating, Kochia",[4]; [21],5
same,"Plant response rating, Kochia",[4]; [9],5
same,"Plant response rating, Kochia",[4]; [10],10
same,"Plant response rating, Kochia","[4]; 62 g ai/ha, scale 0 to 100",100
same,"Plant response rating, Kochia","[4]; 125 g ai/ha, scale 0 to 100",100
same,"Plant response rating, Cupgrass, Woolly",[5]; [11],30
same,"Plant response rating, Cupgrass, Woolly",[5]; [12],80
same,"Plant response rating, Cupgrass, Woolly",[5]; [13],85
same,"Plant response rating, Cupgrass, Woolly",[5]; [14],90
same,"Plant response rating, Cupgrass, Woolly",[5]; [22],90
same,"Plant response rating, Cupgrass, Woolly",[5]; [23],98
same,"Plant response rating, Cupgrass, Woolly",[5]; [17],100
same,"Plant response rating, Cupgrass, Woolly",[5]; [18],100
same,"Plant response rating, Bromegrass, Downy",[6]; [11],50
same,"Plant response rating, Bromegrass, Downy",[6]; [12],50
same,"Plant response rating, Bromegrass, Downy",[6]; [13],70
same,"Plant response rating, Bromegrass, Downy",[6]; [14],80
same,"Plant response rating, Bromegrass, Downy",[6]; [22],60
same,"Plant response rating, Bromegrass, Downy",[6]; [23],95
same,"Plant response rating, Bromegrass, Downy",[6]; [17],100
same,"Plant response rating, Bromegrass, Downy",[6]; [18],100
